{"source": "ChEMBL document CHEMBL5465560", "about": "“Selectivity Literature for EUbOPEN Chemogenomic Library” (2024)", "key": {"[1]": {"molecular_target": "Amine oxidase [flavin-containing] B (Homo sapiens, UniProt P27338)", "sequence (P27338 whole entry)": "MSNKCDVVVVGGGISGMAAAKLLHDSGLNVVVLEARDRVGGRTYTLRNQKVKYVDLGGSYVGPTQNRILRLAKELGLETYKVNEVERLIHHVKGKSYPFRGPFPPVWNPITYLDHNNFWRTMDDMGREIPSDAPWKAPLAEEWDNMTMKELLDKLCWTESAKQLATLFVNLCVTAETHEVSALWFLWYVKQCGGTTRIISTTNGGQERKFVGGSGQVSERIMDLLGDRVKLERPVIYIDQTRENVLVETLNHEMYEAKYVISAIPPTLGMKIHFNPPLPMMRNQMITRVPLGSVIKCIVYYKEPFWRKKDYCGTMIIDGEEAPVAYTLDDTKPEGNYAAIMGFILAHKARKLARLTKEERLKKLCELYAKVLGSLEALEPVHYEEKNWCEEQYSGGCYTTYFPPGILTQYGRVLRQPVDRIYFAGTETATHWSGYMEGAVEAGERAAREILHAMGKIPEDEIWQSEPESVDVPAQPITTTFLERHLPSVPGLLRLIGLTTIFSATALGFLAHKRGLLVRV", "experiment": "Selectivity interaction (Eurofins safety panel) EUB0001564a MAOB", "details": "at 10 µM"}, "[2]": {"molecular_target": "RAC-alpha serine/threonine-protein kinase (Homo sapiens, UniProt P31749)", "sequence (P31749 whole entry)": "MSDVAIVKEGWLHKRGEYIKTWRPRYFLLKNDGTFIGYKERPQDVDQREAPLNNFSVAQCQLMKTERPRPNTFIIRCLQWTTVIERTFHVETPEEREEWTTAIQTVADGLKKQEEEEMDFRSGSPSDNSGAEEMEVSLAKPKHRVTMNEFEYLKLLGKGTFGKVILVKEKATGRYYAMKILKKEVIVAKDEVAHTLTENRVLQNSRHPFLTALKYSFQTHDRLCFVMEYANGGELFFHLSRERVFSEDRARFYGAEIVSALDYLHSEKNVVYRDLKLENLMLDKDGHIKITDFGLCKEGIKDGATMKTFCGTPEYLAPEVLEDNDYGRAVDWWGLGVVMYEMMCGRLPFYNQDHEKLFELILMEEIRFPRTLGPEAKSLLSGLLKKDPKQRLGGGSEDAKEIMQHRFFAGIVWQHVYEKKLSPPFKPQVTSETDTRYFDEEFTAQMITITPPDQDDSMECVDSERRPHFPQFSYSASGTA", "details": "at 10 µM"}, "[3]": {"molecular_target": "T1, Serine/threonine-protein kinase D2 (Homo sapiens) (UniProt Q9BZL6)", "T1 sequence (whole entry)": "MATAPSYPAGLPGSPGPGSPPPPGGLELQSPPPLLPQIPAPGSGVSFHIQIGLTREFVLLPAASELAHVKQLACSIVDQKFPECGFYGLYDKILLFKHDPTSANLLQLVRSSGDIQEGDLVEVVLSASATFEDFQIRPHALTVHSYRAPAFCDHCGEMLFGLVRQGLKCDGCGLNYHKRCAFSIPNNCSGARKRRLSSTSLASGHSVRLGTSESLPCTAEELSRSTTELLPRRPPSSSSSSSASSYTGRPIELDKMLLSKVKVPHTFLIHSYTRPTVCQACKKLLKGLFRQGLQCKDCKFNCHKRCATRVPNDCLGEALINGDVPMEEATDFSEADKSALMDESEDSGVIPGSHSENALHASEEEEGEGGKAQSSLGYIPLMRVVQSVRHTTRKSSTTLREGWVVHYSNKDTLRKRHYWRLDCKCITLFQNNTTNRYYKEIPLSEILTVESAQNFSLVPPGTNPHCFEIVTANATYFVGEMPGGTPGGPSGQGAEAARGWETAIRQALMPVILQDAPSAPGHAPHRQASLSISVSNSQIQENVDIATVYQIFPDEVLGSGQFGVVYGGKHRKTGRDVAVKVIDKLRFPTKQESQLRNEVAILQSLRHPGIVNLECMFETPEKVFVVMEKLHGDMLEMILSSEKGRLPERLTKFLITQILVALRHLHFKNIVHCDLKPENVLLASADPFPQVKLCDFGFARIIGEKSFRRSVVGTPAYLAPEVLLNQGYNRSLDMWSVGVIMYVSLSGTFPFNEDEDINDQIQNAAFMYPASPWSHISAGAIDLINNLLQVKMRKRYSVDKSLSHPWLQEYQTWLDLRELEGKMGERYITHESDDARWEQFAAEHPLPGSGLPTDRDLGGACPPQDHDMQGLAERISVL", "experiment": "Selectivity interaction (Millipore kinase profiler) EUB0000124b PRKD2", "details": "at 10 µM"}, "[4]": {"molecular_target": "T2, Ephrin type-B receptor 1 (Homo sapiens) (UniProt P54762)", "T2 sequence (whole entry)": "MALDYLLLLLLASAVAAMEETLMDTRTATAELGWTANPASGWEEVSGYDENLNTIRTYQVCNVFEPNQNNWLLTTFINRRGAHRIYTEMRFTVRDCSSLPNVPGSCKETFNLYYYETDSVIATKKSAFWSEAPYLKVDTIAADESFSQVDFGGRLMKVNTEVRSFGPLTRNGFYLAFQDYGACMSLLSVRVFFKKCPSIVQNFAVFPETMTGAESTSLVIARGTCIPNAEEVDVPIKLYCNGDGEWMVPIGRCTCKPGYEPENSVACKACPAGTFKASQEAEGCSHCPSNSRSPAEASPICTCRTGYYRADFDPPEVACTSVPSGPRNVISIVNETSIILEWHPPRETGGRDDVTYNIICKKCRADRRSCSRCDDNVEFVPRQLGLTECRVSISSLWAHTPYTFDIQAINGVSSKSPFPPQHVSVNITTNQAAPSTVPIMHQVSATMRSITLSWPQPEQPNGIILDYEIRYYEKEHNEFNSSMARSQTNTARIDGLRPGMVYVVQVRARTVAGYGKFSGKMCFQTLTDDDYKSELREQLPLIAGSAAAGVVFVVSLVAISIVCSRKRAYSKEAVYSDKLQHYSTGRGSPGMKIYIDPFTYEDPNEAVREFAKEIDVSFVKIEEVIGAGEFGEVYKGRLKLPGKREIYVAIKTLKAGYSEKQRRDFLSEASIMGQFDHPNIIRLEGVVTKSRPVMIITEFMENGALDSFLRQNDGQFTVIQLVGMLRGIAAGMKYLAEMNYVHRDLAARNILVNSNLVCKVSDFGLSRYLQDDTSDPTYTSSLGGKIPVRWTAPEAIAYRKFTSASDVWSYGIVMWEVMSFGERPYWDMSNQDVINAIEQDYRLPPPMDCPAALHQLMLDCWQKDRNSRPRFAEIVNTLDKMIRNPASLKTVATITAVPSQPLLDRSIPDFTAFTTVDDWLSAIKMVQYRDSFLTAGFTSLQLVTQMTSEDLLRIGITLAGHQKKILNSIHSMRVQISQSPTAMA", "experiment": "Selectivity interaction (SelectScreen profiling (Invitrogen)) EUB0000607a EPHB1", "details": "at 2 µM"}, "[5]": {"molecular_target": "Mitogen-activated protein kinase kinase kinase kinase 5 (Homo sapiens) (UniProt Q9Y4K4)", "sequence (Q9Y4K4 whole entry, looked up)": "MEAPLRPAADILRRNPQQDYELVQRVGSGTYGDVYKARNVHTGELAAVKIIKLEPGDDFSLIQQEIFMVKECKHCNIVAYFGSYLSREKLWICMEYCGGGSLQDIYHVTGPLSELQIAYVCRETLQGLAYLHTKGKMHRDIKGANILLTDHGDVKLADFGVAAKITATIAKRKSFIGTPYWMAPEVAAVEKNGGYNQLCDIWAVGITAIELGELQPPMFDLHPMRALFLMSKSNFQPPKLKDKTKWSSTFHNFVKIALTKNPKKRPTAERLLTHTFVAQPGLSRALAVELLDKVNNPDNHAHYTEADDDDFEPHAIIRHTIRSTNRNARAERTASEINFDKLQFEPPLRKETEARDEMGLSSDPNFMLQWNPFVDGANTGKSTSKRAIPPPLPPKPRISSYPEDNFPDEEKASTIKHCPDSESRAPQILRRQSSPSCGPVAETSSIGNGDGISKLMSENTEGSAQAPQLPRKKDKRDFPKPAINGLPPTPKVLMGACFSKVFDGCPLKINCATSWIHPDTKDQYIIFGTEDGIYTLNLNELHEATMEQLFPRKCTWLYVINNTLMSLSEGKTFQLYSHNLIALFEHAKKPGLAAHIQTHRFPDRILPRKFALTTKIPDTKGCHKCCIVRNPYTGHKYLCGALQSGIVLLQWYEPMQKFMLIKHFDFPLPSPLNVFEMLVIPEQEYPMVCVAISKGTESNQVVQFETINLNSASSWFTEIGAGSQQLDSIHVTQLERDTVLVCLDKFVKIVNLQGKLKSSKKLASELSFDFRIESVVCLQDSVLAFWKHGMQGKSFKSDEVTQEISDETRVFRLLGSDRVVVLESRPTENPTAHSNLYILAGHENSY", "experiment": "Selectivity interaction (ActivX KiNativ screen (ex vivo kinase selectivity in human PBMCs)) EUB0001619a MAP4K5", "format": "cell-based", "details": "PBMC, at 1 µM"}, "[6]": {"molecular_target": "Serine/threonine-protein kinase mTOR (Homo sapiens, UniProt P42345)", "experiment": "Selectivity interaction (ActivX KiNativ screen (ex vivo kinase selectivity in human PBMCs)) EUB0001619a MTOR", "format": "cell-based", "details": "PBMC, at 1 µM"}, "[7]": {"molecular_target": "Ephrin type-A receptor 7 (Homo sapiens) (UniProt Q15375)", "sequence (Q15375 28-998 limits assumed)": "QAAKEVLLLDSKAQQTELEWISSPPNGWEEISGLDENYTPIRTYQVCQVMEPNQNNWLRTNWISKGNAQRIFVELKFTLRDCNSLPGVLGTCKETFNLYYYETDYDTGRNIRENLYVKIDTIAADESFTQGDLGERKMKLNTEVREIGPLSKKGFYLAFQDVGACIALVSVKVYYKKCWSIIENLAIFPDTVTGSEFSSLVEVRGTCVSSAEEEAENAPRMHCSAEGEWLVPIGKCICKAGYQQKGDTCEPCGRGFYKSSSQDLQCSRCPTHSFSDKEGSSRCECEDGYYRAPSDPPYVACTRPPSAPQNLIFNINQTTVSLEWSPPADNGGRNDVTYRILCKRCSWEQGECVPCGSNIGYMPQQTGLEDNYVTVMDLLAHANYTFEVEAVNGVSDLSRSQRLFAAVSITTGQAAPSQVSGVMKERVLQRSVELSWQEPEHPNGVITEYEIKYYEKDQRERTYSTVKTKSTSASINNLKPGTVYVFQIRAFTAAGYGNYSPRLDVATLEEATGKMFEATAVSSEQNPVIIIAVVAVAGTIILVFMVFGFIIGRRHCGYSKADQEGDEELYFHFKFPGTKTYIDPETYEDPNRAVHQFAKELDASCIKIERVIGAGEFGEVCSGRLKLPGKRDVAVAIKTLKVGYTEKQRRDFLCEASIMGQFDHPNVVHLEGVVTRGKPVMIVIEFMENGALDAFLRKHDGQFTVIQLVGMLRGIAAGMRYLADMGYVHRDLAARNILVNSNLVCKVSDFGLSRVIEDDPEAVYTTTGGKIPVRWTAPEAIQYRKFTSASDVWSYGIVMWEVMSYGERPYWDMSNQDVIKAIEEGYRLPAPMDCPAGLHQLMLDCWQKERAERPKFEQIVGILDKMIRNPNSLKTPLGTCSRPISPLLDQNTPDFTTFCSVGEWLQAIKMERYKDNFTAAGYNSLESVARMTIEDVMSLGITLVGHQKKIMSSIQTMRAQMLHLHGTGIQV", "details": "at 10 µM"}, "[8]": {"molecular_target": "T3, Tyrosine-protein kinase Tec (Homo sapiens) (UniProt P42680)", "T3 sequence (whole entry)": "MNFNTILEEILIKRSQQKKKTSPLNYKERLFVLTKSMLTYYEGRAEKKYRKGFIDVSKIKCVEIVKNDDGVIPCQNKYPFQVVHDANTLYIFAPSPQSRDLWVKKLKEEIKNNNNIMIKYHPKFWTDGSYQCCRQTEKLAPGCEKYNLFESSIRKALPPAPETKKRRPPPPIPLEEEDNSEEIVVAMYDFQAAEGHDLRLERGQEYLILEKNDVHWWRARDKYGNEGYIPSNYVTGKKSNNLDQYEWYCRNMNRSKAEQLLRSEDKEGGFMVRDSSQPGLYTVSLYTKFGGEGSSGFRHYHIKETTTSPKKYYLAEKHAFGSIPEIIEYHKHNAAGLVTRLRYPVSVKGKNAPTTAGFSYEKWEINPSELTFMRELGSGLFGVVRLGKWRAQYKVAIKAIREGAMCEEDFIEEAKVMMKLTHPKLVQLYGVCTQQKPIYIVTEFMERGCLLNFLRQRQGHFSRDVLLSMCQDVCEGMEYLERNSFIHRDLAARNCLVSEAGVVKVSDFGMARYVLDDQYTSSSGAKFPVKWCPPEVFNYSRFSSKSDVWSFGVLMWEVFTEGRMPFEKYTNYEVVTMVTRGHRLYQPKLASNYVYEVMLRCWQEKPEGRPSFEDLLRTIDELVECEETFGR", "experiment": "Selectivity interaction (ActivX KiNativ screen (kinase selectivity in THP-1 cell lysates)) EUB0000639a TEC", "format": "subcellular", "details": "lysate, at 5 µM"}, "[9]": {"molecular_target": "Tyrosine-protein kinase Fyn (Homo sapiens) (UniProt P06241)", "sequence (P06241 2-537 limits assumed)": "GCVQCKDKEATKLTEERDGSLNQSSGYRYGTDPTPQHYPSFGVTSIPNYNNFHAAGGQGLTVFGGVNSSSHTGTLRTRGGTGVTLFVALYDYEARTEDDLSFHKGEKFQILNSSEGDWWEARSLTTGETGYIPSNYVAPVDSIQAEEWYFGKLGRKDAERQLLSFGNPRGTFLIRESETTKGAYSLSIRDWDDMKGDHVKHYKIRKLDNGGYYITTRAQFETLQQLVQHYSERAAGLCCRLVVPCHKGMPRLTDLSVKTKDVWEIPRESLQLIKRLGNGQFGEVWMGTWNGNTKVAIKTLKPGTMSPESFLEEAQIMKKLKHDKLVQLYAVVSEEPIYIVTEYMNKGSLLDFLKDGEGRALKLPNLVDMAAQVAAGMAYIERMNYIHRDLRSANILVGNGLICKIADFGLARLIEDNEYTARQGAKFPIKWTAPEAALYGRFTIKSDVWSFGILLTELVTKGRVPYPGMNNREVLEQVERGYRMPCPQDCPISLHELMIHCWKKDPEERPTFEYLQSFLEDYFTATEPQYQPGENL", "experiment": "Selectivity interaction (Kinase screening (Upstate/Millipore)) EUB0000604a FYN"}}, "data": [{"smiles": "CC[C@@H](Nc1c(C#N)c(-c2ccc(-c3cccc(C)c3F)cc2)nc2cnccc12)C(=O)O", "note": "[BAY-091]", "values": [{"measurement": "% of inhibition", "setting": "[1]", "value": 81, "unit": "%"}]}, {"smiles": "CCN(CC)CCCCNc1ncc2cc(-c3cc(OC)cc(OC)c3)c(NC(=O)NC(C)(C)C)nc2n1", "values": [{"measurement": "% of control", "setting": "[2]", "value": 100, "unit": "%"}]}, {"smiles": "CC(=O)Nc1cccc(-n2c(=O)n(C3CC3)c(=O)c3c(Nc4ccc(I)cc4F)n(C)c(=O)c(C)c32)c1", "values": [{"measurement": "% of control", "setting": "[3]", "value": 98, "unit": "%"}]}, {"smiles": "CNC(=O)Nc1ccc(-c2nc(N3CC4CCC(C3)O4)c3cnn(C4CCC5(CC4)OCCO5)c3n2)cc1", "values": [{"measurement": "% of inhibition", "setting": "[4]", "value": 2, "unit": "%"}]}, {"smiles": "N#Cc1cccc(-c2c[nH]c3ncnc(N4CCOCC4)c23)c1", "values": [{"measurement": "% of inhibition", "setting": "[5]", "value": 16, "unit": "%"}, {"measurement": "% of inhibition", "setting": "[6]", "value": 10, "unit": "%"}]}, {"smiles": "Cc1cc([C@@H](C)Nc2ccccc2C(=O)O)c2nc(N3CCOCC3)cc(=O)n2c1", "note": "[AZD-6482]", "values": [{"measurement": "% of control", "setting": "[7]", "value": 89, "unit": "%"}]}, {"smiles": "CC[C@@H]1[C@H](F)C(=O)N[C@@H]1COc1nccc2cc(C(N)=O)c(OC)cc12", "note": "[ZIMLOVISERTIB]", "values": [{"measurement": "% of inhibition", "setting": "[8]", "value": -18.7, "unit": "%"}]}, {"smiles": "Cc1cnc(Nc2ccc(F)cc2Cl)nc1-c1c[nH]c(C(=O)N[C@H](CO)c2cccc(Cl)c2)c1", "values": [{"measurement": "% of inhibition", "setting": "[9]", "value": 11, "unit": "%"}]}]}
